Data published in patent US20250145598A1, “ACID CERAMIDASE INHIBITORS AND USES THEREOF” (The Regents of the University of California, priority 2021, published 2025).

Target: T1, Acid ceramidase (Homo sapiens, UniProt Q13510)
T1 sequence (Q13510 22-395): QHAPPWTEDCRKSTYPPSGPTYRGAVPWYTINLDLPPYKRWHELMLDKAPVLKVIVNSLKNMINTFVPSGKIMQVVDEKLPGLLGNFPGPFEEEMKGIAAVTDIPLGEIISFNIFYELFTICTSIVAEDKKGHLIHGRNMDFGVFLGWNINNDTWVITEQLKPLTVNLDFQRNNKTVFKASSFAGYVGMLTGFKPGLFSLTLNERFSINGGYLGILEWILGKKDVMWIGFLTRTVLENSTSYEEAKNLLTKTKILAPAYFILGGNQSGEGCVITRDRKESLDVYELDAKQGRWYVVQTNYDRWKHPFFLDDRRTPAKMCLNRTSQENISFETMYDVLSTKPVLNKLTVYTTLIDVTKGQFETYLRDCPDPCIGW
Test: Acid ceramidase assay (AC in vitro IC50)
Assay type: biochemical
Conditions: Acid ceramidase assay data of example compounds

| SMILES | IC50 [nM] |
| --- | --- |
| C[C@H](Oc1ccc(-c2cn(C(=O)NCCCOc3ccccc3)cn2)cc1)c1ccc(S(C)(=O)=O)cc1 (single isomer, unassigned) [AC2020601-0348] | < 300 |
| C[C@@H](Oc1ccc(-c2cn(C(=O)NCCCOc3ccccc3)cn2)cc1)c1ccc(S(C)(=O)=O)cc1 (single isomer, unassigned) [AC2020601-0349] | < 300 |
| CS(=O)(=O)c1ccc(COc2ccc(-c3cn(C(=O)NC[C@@H]4CCN(c5ccccc5)C4)cn3)cc2)cc1 (single isomer, unassigned) [AC2020601-0384a] | < 300 |
| CS(=O)(=O)c1ccc(COc2ccc(-c3cn(C(=O)NC[C@H]4CCN(c5ccccc5)C4)cn3)cc2)cc1 (single isomer, unassigned) [AC2020601-0384b] | < 300 |
| CCCCCCNC(=O)n1cnc(-c2ccccc2OCc2ccccc2)c1 [AC2020601-0199, 4-(2-(benzyloxy)phenyl)-N-hexyl-1H-imidazole-1-carboxamide] | < 300 |
| O=C(NCC1CC1)n1cnc(-c2ccc(OCc3ccc(F)cc3)cc2)c1 [AC2020601-0206, N-(cyclopropylmethyl)-4-(4-(4-fluorobenzyloxy)Vphenyl)-1H-imid azole-1-carboxamide] | < 300 |
| CS(=O)(=O)c1ccc(COc2ccc(-c3cn(C(=O)NCCCCc4ccccc4)cn3)cc2)cc1 [AC2020601-0243, 4-(4-((4-(methylsulfonyl)benzyl)oxy)phenyl)-N-(4-phenylbutyl)-1H-imidazole-1-carboxamide] | < 300 |
| O=C(NCCCCc1ccccc1)n1cnc(-c2ccc(OCc3cccc(N4CCOCC4)c3)cc2)c1 [AC2020601-0245, 4-(4-((3-morpholinobenzyl)oxy)phenyl)-N-(4-phenylbutyl)-1H-imidazole-1-carboxamide] | < 300 |
| NC(=O)c1cccc(COc2ccc(-c3cn(C(=O)NCCCCc4ccccc4)cn3)cc2)c1 [AC2020601-0246, 4-(4-((3-carbamoylbenzyl)oxy)phenyl)-N-(4-phenylbutyl)-1H-imidazole-1-carboxamide] | < 300 |
| N#Cc1cccc(COc2ccc(-c3cn(C(=O)NCCCCc4ccccc4)cn3)cc2)c1 [AC2020601-0275, 4-(4-((3-cyanobenzyl)oxy)phenyl)-N-(4-phenylbutyl)-1H-imidazole-1-carboxamide] | < 300 |
| O=C(NCCCCc1ccccc1)n1cnc(-c2ccc(OCc3cccnc3)cc2)c1 [AC2020601-0276, N-(4-phenylbutyl)-4-(4-(pyridin-3-ylmethoxy)phenyl)-1H-imidazole-1-carboxamide] | < 300 |
| CN(CCCCc1ccccc1)C(=O)n1cnc(-c2ccc(OCc3ccccc3)cc2)c1 [AC2020601-0278, 4-(4-(benzyloxy)phenyl)-N-methyl-N-(4-phenylbutyl)-1H-imidazole-1-carboxamide] | > 3000 |
| NS(=O)(=O)c1ccc(COc2ccc(-c3cn(C(=O)NCCCCc4ccccc4)cn3)cc2)cc1 [AC2020601-0284, N-(4-phenylbutyl)-4-(4-((4-sulfamoylbenzyl)oxy)phenyl)-1H-imidazole-1-carboxamide] | < 300 |
| CS(=O)(=O)c1ccc(COc2ccc(-c3cn(C(=O)NCCCOc4ccccc4)cn3)cc2)cc1 [AC2020601-0294, 4-(4-((4-(methylsulfonyl)benzyl)oxy)phenyl)-N-(3-phenoxypropyl)-1H-imidazole-1-carboxamide] | < 300 |
| CS(=O)(=O)c1ccc(COc2ccc(-c3cn(C(=O)NCC4CC4)cn3)cc2)cc1 [AC2020601-0295, N-(cyclopropylmethyl)-4-(4-((4-(methylsulfonyl)benzyl)oxy)phenyl)-1H-imidazole-1-carboxamide] | < 300 |
| CCCCCCNC(=O)n1cnc(-c2ccc(OCc3ccc(S(C)(=O)=O)cc3)cc2)c1 [AC2020601-0296, N-hexyl-4-(4-((4-(methylsulfonyl)benzyl)oxy)phenyl)-1H-imidazole-1-carboxamide] | < 300 |
| CS(=O)(=O)c1ccc(CNC(=O)n2cnc(-c3ccc(OCc4ccc(S(C)(=O)=O)cc4)cc3)c2)cc1 [AC2020601-0303, N-(4-(methylsulfonyl)benzyl)-4-(4-((4-(methylsulfonyl)benzyl)oxy)phenyl)-1H-imidazole-1-carboxamide] | 301 to 3000 |
| CS(=O)(=O)Nc1ccc(COc2ccc(-c3cn(C(=O)NCCCCc4ccccc4)cn3)cc2)cc1 [AC2020601-0306, 4-(4-((4-(methylsulfonamido)benzyl)oxy)phenyl)-N-(4-phenylbutyl)-1H-imidazole-1-carboxamide] | < 300 |

| SMILES | IC50 [nM] |
| --- | --- |
| CS(=O)(=O)c1ccc(COc2ccc(-c3cn(C(=O)NCC4CN(c5ccccc5)C4)cn3)cc2)cc1 [AC2020601-0321, 4-(4-((4-(methylsulfonyl)benzyl)oxy)phenyl)-N-((1-phenylazetidin-3-yl)methyl)-1H-imidazole-1-carboxamide] | < 300 |
| O=C(NCCCCc1ccccc1)n1cnc(-c2ccc(OCc3ccncc3)cc2)c1 [AC2020601-0323, N-(4-phenylbutyl)-4-(4-(pyridin-4-ylmethoxy)phenyl)-1H-imidazole-1-carboxamide] | < 300 |
| NS(=O)(=O)c1ccc(COc2ccc(-c3cn(C(=O)NCCCOc4ccccc4)cn3)cc2)cc1 [AC2020601-0324] | < 300 |
| CS(=O)(=O)Nc1ccc(COc2ccc(-c3cn(C(=O)NCCCOc4ccccc4)cn3)cc2)cc1 [AC2020601-0327, 4-(4-((4-(methylsulfonamido)benzyl)oxy)phenyl)-N-(3-phenoxypropyl)-1H-imidazole-1-carboxamide] | < 300 |
| O=C(Nc1ccc(COc2ccc(-c3cn(C(=O)NCCCOc4ccccc4)cn3)cc2)cc1)C1CC1 [AC2020601-0328, 4-(4-((4-(cyclopropanecarboxamido)benzyl)oxy)phenyl)-N-(3-phenoxypropyl)-1H-imidazole-1-carboxamide] | < 300 |
| CNS(=O)(=O)c1ccc(COc2ccc(-c3cn(C(=O)NCCCOc4ccccc4)cn3)cc2)cc1 [AC2020601-0339, 4-(4-((4-(N-methylsulfamoyl)benzyl)oxy)phenyl)-N-(3-phenoxypropyl)-1H-imidazole-1-carboxamide] | < 300 |
| CN1CCN(S(=O)(=O)c2ccc(COc3ccc(-c4cn(C(=O)NCCCOc5ccccc5)cn4)cc3)cc2)CC1 [AC2020601-0342, 4-(4-((4-((4-methylpiperazin-1-yl)sulfonyl)benzyl)oxy)phenyl)-N-(3-phenoxypropyl)-1H-imidazole-1-carboxamide] | < 300 |
| O=C(NCCCOc1ccccc1)n1cnc(-c2ccc(OCc3ccc(S(=O)(=O)N4CCOCC4)cc3)cc2)c1 [AC2020601-0347, 4-(4-((4-(morpholinosulfonyl)benzyl)oxy)phenyl)-N-(3-phenoxypropyl)-1H-imidazole-1-carboxamide] | < 300 |
| O=C(NCCCOc1ccccc1)n1cnc(-c2ccc(OCc3ccc(NS(=O)(=O)C(F)F)cc3)cc2)c1 [AC2020601-0363, 4-(4-((4-(difluoromethylsulfonamido)benzyl)oxy)phenyl)-N-(3-phenoxypropyl)-1H-imidazole-1-carboxamide] | < 300 |
| CS(=O)(=O)c1ccc(COc2ccc(-c3cn(C(=O)NCCCOc4ccc(C#N)cc4)cn3)cc2)cc1 [AC2020601-0373, N-(3-(4-cyanophenoxy)propyl)-4-(4-(4-(methylsulfonyl)benzyloxy)phenyl)-1H-imidazole-1-carboxamide] | < 300 |
| CS(=O)(=O)c1ccc(COc2ccc(-c3cn(C(=O)NCCCOc4ccc(S(F)(F)(F)(F)F)cc4)cn3)cc2)cc1 [AC2020601-0374] | < 300 |
| CS(=O)(=O)c1ccc(COc2ccc(-c3cn(C(=O)NCC4CN(Cc5ccccc5)C4)cn3)cc2)cc1 [AC2020601-0377, N-((1-benzylazetidin-3-yl)methyl)-4-(4-((4-(methylsulfonyl)benzyl)oxy)phenyl)-1H-imidazole-1-carboxamide] | > 3000 |
| CC(C)N1CC(CNC(=O)n2cnc(-c3ccc(OCc4ccc(S(C)(=O)=O)cc4)cc3)c2)C1 [AC2020601-0379, N -((1-isopropylazetidin-3-yl)methyl)-4-(4-((4-(methylsulfonyl)benzyl)oxy)phenyl)-1H-imidazole-1-carboxamide] | > 3000 |
| CS(=O)(=O)Nc1ccc(COc2ccc(-c3cn(C(=O)NCC4CN(c5ccccc5)C4)cn3)cc2)cc1 [AC2020601-0380, 4-(4-((4-(methylsulfonamido)benzyl)oxy)phenyl)-N-((1-phenylazetidin-3-yl)methyl)-1H-imidazole-1-carboxamide] | > 3000 |
| O=C(NCC1CN(c2ccccc2)C1)n1cnc(-c2ccc(OCc3cccc(N4CCOCC4)c3)cc2)c1 [AC2020601-0382, 4-(4-(3-morpholinobenzyloxy)phenyl)-N-((1-phenylazetidin-3-yl)methyl)-1H-imidazole-1-carboxamide] | < 300 |
| O=C(Nc1ccc(COc2ccc(-c3cn(C(=O)NCC4CN(c5ccccc5)C4)cn3)cc2)cc1)C1COC1 [AC2020601-0401, 4-(4-((4-(oxetane-3-carboxamido)benzyl)oxy)phenyl)-N-((1-phenylazetidin-3-yl)methyl)-1H-imidazole-1-carboxamide] | < 300 |
| CS(=O)(=O)c1ccc(COc2ccc(-c3cn(C(=O)NCCN4Cc5ccccc5C4)cn3)cc2)cc1 [AC2020601-0402, N-(2-(isoindolin-2-yl)ethyl)-4-(4-(4-(methylsulfonyl)benzyloxy)phenyl)-1H-imidazole-1-carboxamide] | > 3000 |
| CS(=O)(=O)c1ccc(COc2ccc(-c3cn(C(=O)NCC4CN(c5cccc(Cl)c5)C4)cn3)cc2)cc1 [AC2020601-0407, N-((1-(3-chlorophenyl)azetidin-3-yl)methyl)-4-(4-((4-(methylsulfonyl)benzyl)oxy)phenyl)-1H-imidazole-1-carboxamide] | < 300 |
